In one data set the test system is activated caspase-3. Kind of data set: Activated caspase-3 immunostaining in Meg-01 cells. It is filed as cell-based, human. To be noted: for caspase-3 activation induced by Thapsi or ARP, with co-treatment: 24 hours, Thapsi or ARP plus inhibitor; for caspase-3 activation induced by Thapsi, with co-treatment: Thapsi plus inhibitor.
For a further data set, the system named is AChE-R. Kind of data set: AChE-R protein immunocytochemistry in Meg-01 cells. It counts as cell-based, human. To be noted: 24 hours.
A further data set deals with AChmiRNA (miRNA-181a). The data set can be described thus: AChmiRNA (miRNA-181a) level by real-time RT-PCR in Meg-01 cells. It counts as cell-based, human. To be noted: for AChmiRNA levels on co-treatment with Thapsi: Meg-01 cells co-treated with Thapsi and inhibitor; for ARP-induced decrease of AChmiRNA on co-treatment: Meg-01 cells, ARP plus inhibitor. Background: Quantitative PCR measures a nucleic acid by following its amplification.

Another data set relates to PKCβII. Kind of data set: PKCβII immunocytochemistry in Meg-01 cells. It is filed as cell-based, human. To be noted: 24 hours.
The subject of data set [1] is Murine macrophage RAW 264.7 cells. Kind of data set: Nitric oxide production (nitrite, Griess) by RAW 264.7 macrophages. To be noted: LPS 1 μg/ml, IFN-γ 4 ng/ml, oligos 100 nM. It is filed as cell-based. The protocol: Murine macrophage RAW 264.7 cells were cultured in 48 well plates (50×10^3 cells per well). The production of NO by these macrophages was examined following various stimuli (6 repetitions for each treatment) at three time intervals (6, 12 and 24 hours) as depicted in FIGS. 27a, 27b and 27c.
Mouse RAW cells, human U937 cells and primary human macrophages were treated for 24 h with 1 μM CpG oligonucleotides or 1 μg/ml bacterial lipopolysaccharide added to standard growth medium
Interleukin 6 expression was assayed by QRT-PCR, nitric oxide was measured by Griess assay and prostaglandin E2 levels were measured by R&D ELISA kit according to manufacturer's instructions.

For a further data set, the system named is AChE-R mRNA. Kind of data set: AChE-R mRNA level (RT-PCR, fluorescent in situ hybridization) in Meg-01 cells. It counts as cell-based, human. To be noted: negative control oligo, data not shown.
Data set [2] concerns 3′UTR fragment of human AChE cDNA. The data set can be described thus: Dot blot hybridization of LNA-modified oligos with PCR-amplified AChE 3′UTR. It counts as binding. To be noted: 5′-32P-labeled LNA-modified oligos. The protocol:
The common AChE 3′-UTR sequence was obtained from AY750146 (all mRNA sequence beginning from stop codon). 3′-UTR of AChE was amplified by RT-PCR using Promega reagents and total RNA isolated with QIAGEN RNeasy kit from post-mortem human brain, with primers including XhoI, NotI restriction sites in 5′ and 3′ primer, respectively. Primer sequences used were: (5′): […], (3′) (SEQ ID NO: 111): […] (SEQ ID NO: 112). Annealing temperature of 57° C. was used. PCR product was purified with QIAGEN QiaQuick kit, size of fragment verified in agarose gel, spotted on a dry HyBond nylon membrane in 2 ul drops, cross-linked to the membrane using 1200 mJ UV burst, and baked for 1 hr at 80° C. Membrane was blocked for at least 2 hours in solution containing 50% deionized formamide, 5×SSPE, 0.5% SDS, 5×Denhardt's Solution at 50° C.; and hybridized o/night in same conditions with 5′-32P-labeled probes mimicking miRs wholly or with mismatches as indicated, washed 4 times at 37° C. in 3×SSPE, 5% SDS, 10×Denhardt's solution; once at 42° C. in 1×SSPE, 1% SDS; exposed over up to 3 days to a PhosphorImager (Molecular Dynamics/GE Healthcare) plate, and signal quantified using FujiFilm's ImageGauge 4 software.

Another data set concerns RAW 264.7 cells. Kind of data set: NO production of LPS-challenged RAW 264.7 cells transfected with miR mimics. It is filed as cell-based, murine. As for the experimental part: Murine RAW 264.7 macrophage-derived cell line known to express TLR4 and respond to endotoxin by production of pro-inflammatory mediators such as Nitric Oxide (NO), prostaglandins, and cytokines as ILE IL6, and TNFalpha were used (described in the preceding examples e.g., Examples 7 and 8). Cells were grown in 5 ml flasks in a humidified atmosphere in Dulbecco's modified Eagle's medium (DMEM, Biological Industries) supplemented with 10% fetal calf serum (FCS) and 2 mM L-glutamine at 37° C., 5% CO2.
Griess method was used to determine NO2 levels in medium in which macrophages had been cultured. 100 μl of each sample+100 μl of Griess reagent (1% sulfanilamide/0.1% naphthylethylenediamine dihydrochloride/2.5% H3PO4)—were incubated 10-20 min at room temperature. Read absorbance at 546 nm in micro-ELISA reader.
miR 132 and 182* (SEQ ID NOs: 54 and 93, respectively) were LNA modified (products are designated with SEQ ID NOs. 107 and 108, respectively). A locked nucleic acid (LNA), often referred to as inaccessible RNA, is a modified RNA. Ribose moiety of LNA nucleotide is modified with an extra bridge connecting 2′ and 4′ carbons. The bridge “locks” the ribose in 3′-endo structural conformation, which is often found in A-form of DNA or RNA. LNA nucleotides can be mixed with DNA or RNA bases in the oligonucleotide whenever desired. The locked ribose conformation enhances base stacking and backbone pre-organization.
electroporation and lipofection were used for cell transfection.
Oligos containing LNA modifications on every third base (Table 4) were obtained from Sigma-Proligo. Transfection was performed with Lipofectamine 2000 (Invitrogen, Carlsbad, Calif.) using 3 μg of oligo per sample. Briefly, cells were brought to 80%-90% confluence at the time of transfection. For each transfection sample, 3 μg oligo were diluted in 1 ml of RPMI-1640 while the lipofectamine reagent was diluted in 1 ml of RPMI-1640. After 5 minutes the diluted oligo and lipofectamine were combined and incubated for 20 minutes. This was added to the cells within the 75 ml flask, containing 6 ml RPMI complete+GM-CSF ([…] final oligo concentration). […]
To determine cell viability 40 μl of thiazolyl blue tetrazolium bromide (MTT) reagent (Sigma) at 5 mg/ml was added per sample well, incubated for 30 minutes at 37° C. Medium was removed, 400 μl of DMSO was added per well and absorbance read at 550 nm Griess method was used to determine NO2 levels in conditioned medium from macrophage cultures. […] Absorbance was read at 546 nm in a micro-ELISA reader. TNF-α, IL-6 levels were measured by Enzyme-Linked Immunosorbent Assay (ELISA) according to manufacturer's procedures (R&D Systems kits, MTA00, M6000B, respectively). All absorbance results were normalized using standard curves. […]

Numbered stars: 1 amine (or outer) side, 2 acyl side, 3 side chain; on linkers, the order of the positions; unused ones are H or OH. Bridge positions count the residues as written; N and C are the ends. Square brackets hold non-standard residues; d marks the D form. Peptide text beside a SMILES is read from it. I, II: the chains in the order shown. Actinocin(9to1) = Cc1c2oc3c(C)ccc(C(=O)[*:1])c3nc-2c(C(=O)[*:2])c(N)c1=O; NMeV = CN[C@H](C(=O)O)C(C)C; Sar = CNCC(=O)O

Take `CO[C@H](C/C=C\C=C\CC/C=C/C[C@H](C)/C=C/C(=C\C(=O)O)CC(=O)O)/C(C)=C\C=C(/C)C(=O)O` [Bongkrekic acid]: the “caspase-3 activation induced by Thapsi or ARP, with co-treatment” value in the data set with activated caspase-3 was “inhibited the caspase-3 activation induced by ER-calcium releasing or ARP”. In the case of `O=S(=O)(NCCNCC=Cc1ccc(Br)cc1)c1cccc2cnccc12` [H89, N-(2-((p-Bromocinnamyl)amino)ethyl)-5-isoquinolinesulfonamide], the “increase in AChE-R immunoreactivity elicited by Thapsi or ARP, with co-treatment” value in the data set on AChE-R is given as “blocked the characteristic increase in AChE-R immunoreactivity”. Besides, the “caspase-3 activation induced by Thapsi or ARP, with co-treatment” value in the data set with activated caspase-3 was “prevented the differentiation-associated caspase-3 activation induced by both Thapsi and ARP”. In the data set on AChmiRNA (miRNA-181a), the “AChmiRNA levels on co-treatment with Thapsi” value is listed as “restored the control levels of AChmiRNA” and the “ARP-induced decrease of AChmiRNA on co-treatment” value is on record as “prevented the ARP effect”. For the compound `CCCCCCCCCCCCCC(=O)O[C@@H]1[C@@H](C)[C@@]2(O)[C@@H](C=C(CO)C[C@]3(O)C(=O)C(C)=C[C@@H]23)[C@@H]2C(C)(C)[C@]12OC(C)=O` [PMA, phorbol 12-myristate 13-acetate], the “staining intensity for PKCβ” value in the data set on PKCβII is given as “increased staining intensity for PKCβ”. As to `CN(C)C(=O)Oc1ccc[n+](C)c1` [Pyridostigmine], in the data set with activated caspase-3, the “caspase-3 activation induced by Thapsi, with co-treatment” value is given as “inhibited the activation of caspase-3 induced by Thapsi”. The same measure, in the same setting: the value for `Cc1c2oc3c(C)ccc(C(=O)N[C@@H]4C(=O)N[C@H](C(C)C)C(=O)N5CCC[C@H]5C(=O)N(C)CC(=O)N(C)[C@@H](C(C)C)C(=O)O[C@@H]4C)c3nc-2c(C(=O)N[C@@H]2C(=O)N[C@H](C(C)C)C(=O)N3CCC[C@H]3C(=O)N(C)CC(=O)N(C)[C@@H](C(C)C)C(=O)O[C@@H]2C)c(N)c1=O` [actinomycin D, Actinomycin D] (I: T[dV]P[Sar][NMeV] / II: T[dV]P[Sar][NMeV]; ester I:1-I:C, II:1-II:C; linker I:N-II:N via Actinocin(9to1)) was “inhibited”. Turning to Bisindolylmaleimide [BIM], the “increase in AChE-R immunoreactivity elicited by Thapsi or ARP, with co-treatment” value with AChE-R was “blocked the characteristic increase in AChE-R immunoreactivity”. In addition, in the data set with activated caspase-3, the “caspase-3 activation induced by Thapsi or ARP, with co-treatment” value was “inhibited the activation of caspase-3 induced by both treatments”. Besides, in the data set with AChmiRNA (miRNA-181a), the “AChmiRNA levels on co-treatment with Thapsi” value is reported as “restored the control levels of AChmiRNA” and the “ARP-induced decrease of AChmiRNA on co-treatment” value was “prevented the ARP effect”. On to IFN-γ: interferon (IFN)-γ, for which the “Nitrite concentration reflecting NO production” value was 8 µM in data set [1] (RAW 264.7, 6 hours); 26 µM in data set [1] (RAW 264.7, 12 hours); 54 µM in data set [1] (RAW 264.7, 24 hours). On to “SEQ ID NO:20: similar oligo with an inverse sequence to AChmiON, used as negative control (CCACGUCCUCUUGCACCGUC; similar oligo to AChmiON, chemistry not explicitly stated, further chemistry not given here)”, for which, in the data set on AChE-R mRNA, the “effect on the AChE splice shift” value is given as “no significant effect on the AChE splice shift”. As to “miR-132 mut2A>G: miR-132 mimic with single mismatch in second nucleotide: TG+ACA+GTC+TAC+AGC+CAT+GGT+CG (TGACAGTCTACAGCCATGGTCG; LNA at 3, 6, 9, 12, 15, 18, 21, other sugars and backbone not given here)”, in data set [2], the “binding to PCR-amplified AChE 3′UTR (dot blot signal)” value (“binding to PCR-amplified AChE 3′UTR” below) is “detectable signal only when bound to 50 ng of PCR product”. For the compound “miR-182* mimic: LNA-modified oligo mimicking miR-182*: TG+GTT+CTA+GAC+TTG+CCA+ACT+A (TGGTTCTAGACTTGCCAACTA; LNA at 3, 6, 9, 12, 15, 18, 21, other sugars and backbone not given here)”, the “activation of macrophage cell lines by LPS (NO production) after transfection” value with RAW 264.7 cells (LPS-exposed RAW-264.7 cells transfected with oligo (Example 13)) is listed as “somewhat less prominently”. For the same compound, the “endotoxin response (NO production) after transfection” value with RAW 264.7 cells (RAW 264.7 cells transfected or electroporated, then endotoxin challenge (Example 11)) was “significantly attenuate endotoxin response”. In addition, in data set [2], the “binding to PCR-amplified AChE 3′UTR” value is recorded as “significant binding to 20 ng doses of PCR product”. Consider “miR-182* mut2G>A: miR-182* mimic with single mismatch in second nucleotide: TA+GTT+CTA+GAC+TTG+CCA+ACT+A (TAGTTCTAGACTTGCCAACTA; LNA at 3, 6, 9, 12, 15, 18, 21, other sugars and backbone not given here)”, for which the “binding to PCR-amplified AChE 3′UTR” value in data set [2] is reported as “disappeared altogether”.
